Data on one compound can be found in patent US20180369203A1, “METHODS OF TREATING CANCER BY ADMINISTERING A MEK INHIBITOR IN COMBINATION WITH A PROTEASOME INHIBITOR” (The Jackson Laboratory, priority 2015, published 2018).

Experiment [1] concerns A2058 cells. Kind of experiment: Amyloid quantitation by ELISA in A2058 cells pre-incubated with ThT. The experiment is classed as cell-based, human. The conditions noted are these: 10 μM ThT pre-incubation 6 hr, then inhibitors 24 hr. Here is the method:
(§1) FIGS. 5A-Y show MEK and proteasome inhibition provoke protein aggregation and amyloidogenesis. (A-B) WM115 cells treated with 20 nM AZD6244, 100 nM Bortezomib, or both for 24 hr were stained with Lys48-specific ubiquitin antibodies. Arrowheads mark ubiquitin-positive aggregates. Scale bar: 10 μm. Amounts of aggregates per cell were quantitated using ImageJ (median, n≥100, ANOVA). (C-F) Following transfection with polyQ79 plasmids alone or with both polyQ79 and HSF1^S326D plasmids for one day, HEK293T cells were treated with inhibitors as described in (A-B). Cells were either analyzed for aggregate size or stained with 10 μM ThT. (G) Treated tumor cell lines were stained with 10 μM ThT. Geometric means were used to calculate fold changes in ThT fluorescence intensity and the log 2(FC) values were presented as a heat map. […] Following treatments, AOs were quantitated by ELISA using A11 antibodies (mean±SD, n=3, ANOVA). (I) Intrinsic AOs were detected in human tumor cell lines (mean±SD, n=3, ANOVA). […] Amyloids were quantitated by ELISA (mean±SD, n=3, Student's t-test). […] AF formation was monitored by ThT binding (mean±SD, n=3, ANOVA). […] Amyloids were quantitated (mean±SD, n=3, Student's t-test). […] Viable cells were quantitated by CellTiter® blue (mean±SD, n=6, Student's t-test). […] Viable cells were quantitated (mean±SD, n=6, ANOVA). […]
To quantitate amyloid fibrils, detergent-insoluble proteins were extracted. […]

Experiment [2] deals with A2058 cells. Description: Viable A2058 cells by CellTiter Blue with amyloid blockers plus inhibitors. The experiment is classed as cell-based, human. The conditions noted are these: 10 μM ThT pre-incubation 6 hr, then inhibitors 24 hr. Here is the method: as §1
This figure is related to FIG. 5. […] (C) Quantitation of protein aggregate size. […]
On the technique in general: Alamar Blue is a resazurin reagent that responds to reducing activity.

As to `Cc1ccc2c(c1)sc(-c1ccc(N(C)C)cc1)[n+]2C.[Cl-]` [ThT, Thioflavin T], the “amyloid induction by inhibitors” value with A2058 cells [1] is on record as “suppressed”. Moreover, the “improvement of cellular growth and survival” value in the experiment with A2058 cells [2] is reported as 50%.
